Experimental data as given in patent US6534519B1, “Phenanthridine-N-oxides with PDE-IV inhibiting activity” (Altana Pharma AG, priority 1999, dated 2003).

How the values were obtained:
PDE4 = assay: Inhibition of PDE4 activity (method of Bauer and Schwabe, microtiter plates); format: biochemical; conditions: inhibitory concentration as −log IC50 (mol/1)
Source text: The activity test can be carried out, for example according to the method of Bauer and Schwabe. For this, the method is adapted to microtiter plates (Naunyn-Schmiedeberg's Arch. Pharmacol. 1980, 311, 193-198). The PDE reaction takes place in the first step here. In a second step, the resulting 5′-nucleotide is cleaved by a 5′-nucloetidase of the snake venom of Crotalus atrox to the uncharged nucleoside. In the third step, the nucleoside is separated from the remaining charged substrate on ion-exchange columns. The columns are eluted directly into minivials, into which 2 ml of scintillator fluid are additionally added for counting, using 2 ml of 30 mM ammonium formate (pH 6.0).
The inhibitory values determined for the compounds according to the invention [inhibitory concentration as −log IC50 (mol/1)] follow from the following Table A, in which the numbers of the compounds correspond to the numbers of the examples.

melting point: 143.5 to 146 °C
SMILES: CCn1nnc(-c2ccc(C3=[N+]([O-])C4CCCCC4c4cc(OC)c(OC)cc43)cc2)n1 (single isomer, unassigned; (-)) [Compound 1, (−)-cis-6-[4-(2-Ethyl-2H-tetrazol-5-yl)phenyl]-8,9-dimethoxy-1,2,3,4,4a,10b-hexahydrophen-anthridine-N-5-oxide]
−log IC50 (PDE4): 6.29
